22 molecules from patent US20230009608A1, “GRK2 INHIBITORS AND USES THEREOF” (Cygnal Therapeutics, Inc., priority 2020, published 2023) can be followed below.

A value given as a limit tells only on which side of the number the result lay.

As a reminder, the GI50 is the concentration at which growth is held to half of that of the control.

Test [1] deals with PAXF1657 control empty vector cell line. Nature of the test: 7-day proliferation assay, PAXF1657 control empty vector cell line (Example 9). It is filed as cell-based. The conditions noted are these: 168 h; for GI50: 7-day compound treatment, CellTiter-Glo; for IC50: Cell Line: PAXF1657 empty vector (EV) cell line, 7-day, read-out: C: 7-day proliferation assay: IC50 GeoMean. In short, it runs like this:
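Seven-day growth in PAXF1657 lines engineered for GRK2 overexpression or knockout, measured by CellTiter-Glo; compounds tested at 30 μM-0.0002 μM final and replenished once at day 3.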
A general note: Cellular ATP, detected with luciferase, serves as a proxy for viable cell number.

In test [2] the test system is PAXF1657 cell line stably overexpressing GRK2. The test can be described thus: 7-day proliferation assay, PAXF1657 stably overexpressing GRK2 (Example 9). Format: cell-based. The conditions noted are these: for GI50: 168 h, 7-day compound treatment, CellTiter-Glo; for Ratio GRK2 overexpressing cells/Empty vector cells: GI50 in GRK2 overexpressing PAXF1657 over GI50 in empty vector PAXF1657. As for the experimental part: In order to identify compounds specific for GRK2, we generated two isogenic cell line pairs of the pancreatic cancer cell line PAXF1657, a pair of cells stably overexpressing GRK2 cDNA or the control empty vector and a cell line pair of PAXF1657 GRK2 knockout clonal cells versus non-targeting control clonal cells.
Proliferation Assay: Cellular anti-proliferative activity of compounds was assessed by using the pancreatic cancer cell line, PAXF1657, stably overexpressing GRK2 cDNA or the control empty vector, as well as the parental urinary bladder cancer cell line, 5637. In addition, we also took advantage of GRK2 knockout cell lines that were generated via CRISPR. Cell lines were seeded into tissue culture treated, white-walled, 96-well plates at a density of 500 cells/well in RPMI1640 media supplemented with 10% H.I. FBS and penicillin/streptomycin. Plates were incubated overnight at 37° C., 5% CO2 to allow cells to adhere to the wells. GRK2 inhibitors were added to the cells using a 10-point dilution series with a final concentration ranging from 30 μM-0.0002 μM in 0.3% DMSO. At the time of compound addition, a set of plates, that were not treated with compounds, were collected and cell viability was measured using CellTiter-Glo (Promega). CellTiter-Glo reagent was added to the designed plates and luminescence was measuring using a Biotek Synergy plate reader. The compound treated cells were incubated for 3 days at 37° C., 5% CO2. The media was then aspirated from each well and replaced with fresh media containing GRK2 inhibitors. The compound treated cells were then incubated for an additional 4 days at 37° C., 5% CO2. Cell viability was assessed and at end of the 7-day compound treatment by CellTiterGlo.

Test [3] deals with T1, GRK2 (Homo sapiens, UniProt P25098).
T1 construct: purchased SignalChem A14-10G
T1 sequence (P25098 1-689): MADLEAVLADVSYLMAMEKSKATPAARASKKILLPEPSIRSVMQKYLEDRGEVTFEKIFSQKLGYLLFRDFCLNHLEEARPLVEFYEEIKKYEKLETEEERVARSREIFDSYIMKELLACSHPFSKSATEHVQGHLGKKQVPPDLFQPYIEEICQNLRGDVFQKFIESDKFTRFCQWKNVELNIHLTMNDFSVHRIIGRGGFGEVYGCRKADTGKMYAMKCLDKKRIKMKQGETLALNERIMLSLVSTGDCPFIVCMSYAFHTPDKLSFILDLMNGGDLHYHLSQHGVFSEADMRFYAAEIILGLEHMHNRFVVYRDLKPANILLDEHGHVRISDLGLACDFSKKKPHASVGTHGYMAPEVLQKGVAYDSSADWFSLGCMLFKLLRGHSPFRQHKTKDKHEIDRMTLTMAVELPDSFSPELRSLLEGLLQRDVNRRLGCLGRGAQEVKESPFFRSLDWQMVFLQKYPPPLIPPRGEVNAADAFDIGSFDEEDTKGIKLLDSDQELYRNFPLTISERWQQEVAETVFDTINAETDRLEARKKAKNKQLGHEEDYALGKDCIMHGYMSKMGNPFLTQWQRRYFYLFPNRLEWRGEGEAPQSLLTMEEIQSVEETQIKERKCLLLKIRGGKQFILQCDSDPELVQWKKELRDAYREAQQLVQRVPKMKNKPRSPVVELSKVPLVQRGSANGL
The test can be described thus: GRK2 Inhibition Assay (TR-FRET, Example 7). Format: biochemical. In short, it runs like this:
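GRK2 at 1 nM preincubated 30 min with compound, then reacted 90 min at room temperature with 7 μM ATP and 50 nM ULight-TopoIIα in HEPES/MgCl2/DTT buffer. Phosphorylation detected by TR-FRET after Eu anti-TopoIIα and EDTA addition, 60 min.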
On the technique in general: TR-FRET usually uses a lanthanide donor and a delayed reading to cut background.

The target of test [4] is T1, GRK2. Nature of the test: ADPGlo GRK2 Inhibition Assay (Example 8). Format: biochemical. In outline: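 GRK2 (15 nM 2× enzyme solution) was preincubated 15 min with compound, then reacted 180 min at room temperature with 2× mix of 20 μM ATP plus GRKtide in HEPES pH 7.5, MgCl2, Tween-20, DTT. ADP was detected by ADP-Glo luminescence. Percent inhibition was normalised to enzyme and no-enzyme controls, with dose-response curves from threefold dilutions starting at 100 μM.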
In general terms: In ADP-Glo the light output rises with the ADP produced.

[5] abbreviates: 1 nM GRK2, 7 μM ATP, TR-FRET, read-out: GRK2 IC50 (nM) (Example 7).
[6] abbreviates: 7.5 nM GRK2, 10 μM ATP, ADP-Glo, read-out: GRK2 IC50 (nM) (Example 8).
The mark [7] stands for this setting: TR-FRET GRK2 enzyme assay, read-out: B: Enzymatic GRK2: IC50 (nM) (Example 7).
Setting [8] is: ADPGlo GRK2 enzyme assay, read-out: A: Enzymatic GRK2: IC50 (nM) (Example 8).

As to `Cn1c(CNc2cccc(C(=O)NCc3ccccc3C(F)(F)F)c2)nnc1-c1ccncc1` [115h, reference compound], in test [1], the concentration for 50% growth inhibition (GI50) is 8.91 µM. Moreover, in test [2], the GI50 was found to be 10 µM and the “Ratio GRK2 overexpressing cells/Empty vector cells” value worked out at 1.12.

As for `O=C(NCc1ccccc1C(F)(F)F)c1cccc(NCc2nnc3n2CCCOc2ccccc2-3)c1` [133a, reference compound], the GI50 in test [1] came out at 0.14 µM; in test [2], 0.24 µM. Moreover, the “Ratio GRK2 overexpressing cells/Empty vector cells” value in test [2] is 1.71.

Regarding `CCCn1c(CNc2cccc(C(=O)NCc3ccccc3C(F)(F)F)c2)nnc1-c1ccncn1` [139c, reference compound], the GI50 in test [1] was 0.84 µM; in test [2] it was 1.47 µM. Further, the “Ratio GRK2 overexpressing cells/Empty vector cells” value in test [2] worked out at 1.75.

Consider `Cn1c(CNc2cccc(C(=O)NCc3cccc4c3OCC4)c2)nnc1-c1ccncn1` [compound 1, N-((2,3-dihydrobenzofuran-7-yl)methyl)-3-(((4-methyl-5-(pyrimidin-4-yl)-4H-1,2,4-triazol-3-yl)methyl)amino)benzamide], for which the figures for the IC50 at GRK2 [3] (setting [5]) and at GRK2 [4] (setting [6]) were 4.7 nM and 27 nM, respectively. Moreover, the GI50 in test [1] was found to be 1.97 µM; in test [2] it was 24.3 µM. For the same molecule, the “Ratio GRK2 overexpressing cells/Empty vector cells” value in test [2] was 12.34.

For the molecule `Cn1c(CNc2cccc(C(=O)NCc3cccc(F)c3)c2)nnc1-c1ccncn1` [compound 2], the IC50 on GRK2 [3] (setting [5]) is 56 nM; on GRK2 [4] (setting [6]), 49 nM. Further, the GI50 came to 1.79 µM in test [1] and 20.5 µM in test [2]. Further, the “Ratio GRK2 overexpressing cells/Empty vector cells” value in test [2] came out at 11.46.

With `Cn1c(CNc2cccc(C(=O)N[C@H]3CCOc4ccccc43)c2)nnc1-c1ccncn1` [compound 3], the IC50 came to 10 nM at GRK2 [3] (setting [5]) and 18 nM at GRK2 [4] (setting [6]). The GI50 came to 1.16 µM in test [1] and 8.61 µM in test [2]. In addition, the “Ratio GRK2 overexpressing cells/Empty vector cells” value in test [2] was found to be 7.42.

Turning to `Cn1c(CNc2cccc(C(=O)NCc3cccnc3C(F)(F)F)c2)nnc1-c1ccncn1` [compound 4], the figures for the IC50 at GRK2 [3] (setting [5]) and on GRK2 [4] (setting [6]) were 28 nM and 36 nM, respectively. For the same molecule, the GI50 in test [1] was found to be 0.79 µM; in test [2], 4.59 µM. The “Ratio GRK2 overexpressing cells/Empty vector cells” value in test [2] stood at 5.79.

As for `COc1ccc(CNC(=O)c2cccc(NCc3nnc(-c4ccncn4)n3C)c2)c(F)c1` [compound 5], the IC50 on GRK2 [3] (setting [5]) came out at 5.4 nM; at GRK2 [4] (setting [6]) it was 19 nM. Moreover, the figures for the GI50 in test [1] and in test [2] were 1.51 µM and 10.3 µM, respectively. Besides, the “Ratio GRK2 overexpressing cells/Empty vector cells” value in test [2] is 6.79.

As to `COc1cccc(OC)c1CNC(=O)c1cccc(NCc2nnc(-c3ccncn3)n2C)c1` [compound 6], the IC50 at GRK2 [3] (setting [5]) amounted to 19 nM; on GRK2 [4] (setting [6]) it was 44 nM. In addition, the figures for the GI50 in test [1] and in test [2] were 2.08 µM and 12.5 µM, respectively. In test [2], the “Ratio GRK2 overexpressing cells/Empty vector cells” value came to 6.01.

For `Cn1c(CNc2cccc(C(=O)NCc3cc(F)cc(F)c3)c2)nnc1-c1ccncn1` [compound 10], the IC50 on GRK2 [4] (setting [6]) was found to be 15 nM. Further, the GI50 came to 1.58 µM in test [1] and 13.7 µM in test [2]. The “Ratio GRK2 overexpressing cells/Empty vector cells” value in test [2] is given as 8.65.

As for `CCc1cnccc1CNC(=O)c1cccc(NCc2nnc(-c3ccncn3)n2C)c1` [compound 12], the IC50 at GRK2 [4] (setting [6]) came out at 51 nM. In addition, the GI50 in test [1] came to 0.97 µM. For the same molecule, in test [2], the GI50 worked out at 8.01 µM and the “Ratio GRK2 overexpressing cells/Empty vector cells” value is 8.24.

For the molecule `CCn1ncc(CNC(=O)c2cccc(NCc3nnc(-c4ccncn4)n3C)c2)c1F` [compound 15], the IC50 on GRK2 [4] (setting [6]) is 18 nM. For the same molecule, the GI50 in test [1] is 4.01 µM. Besides, in test [2], the GI50 amounted to 17.7 µM and the “Ratio GRK2 overexpressing cells/Empty vector cells” value was 4.42.

In the case of `Cc1cccnc1C(C)NC(=O)c1cccc(NCc2nnc(-c3ccncn3)n2C)c1` (centres unmarked) [compound 17], the IC50 on GRK2 [4] (setting [6]) is 10 nM. Also, the GI50 in test [1] came to 2.11 µM. In test [2], the GI50 is 10.3 µM and the “Ratio GRK2 overexpressing cells/Empty vector cells” value came out at 4.89.

`Cn1c(CNc2cccc(C(=O)NC3CCOc4c(Cl)cccc43)c2)nnc1-c1ccncn1` (centres unmarked) [compound 20]: the IC50 on GRK2 [4] (setting [6]) turned out to be 10 nM. Moreover, the GI50 in test [1] turned out to be 1.03 µM. Also, in test [2], the GI50 was 7.99 µM and the “Ratio GRK2 overexpressing cells/Empty vector cells” value came to 7.76.

Turning to `Cc1ccnc(C(C)NC(=O)c2cccc(NCc3nnc(-c4ccncn4)n3C)c2)c1` (centres unmarked) [compound 25], the GI50 was greater than 30 µM in test [1] and 25.8 µM in test [2].

In the case of `Cn1c(CNc2cccc(C(=O)N[C@H]3COc4ccccc43)c2)nnc1-c1ccncn1` [compound 26], at GRK2 [4] (setting [6]), the IC50 came to 9.8 nM. Besides, the GI50 in test [1] worked out at 0.68 µM; in test [2] it was 4.18 µM. For the same molecule, the “Ratio GRK2 overexpressing cells/Empty vector cells” value in test [2] was found to be 6.15.

`C[C@@H](NC(=O)c1cccc(NCc2nnc(-c3ccncn3)n2C)c1)c1ncccc1Cl` [compound 29]: at GRK2 [4] (setting [6]), the IC50 was determined as 12 nM. For the same molecule, the GI50 in test [1] came to 1.24 µM. Also, in test [2], the GI50 was determined as 5.01 µM and the “Ratio GRK2 overexpressing cells/Empty vector cells” value was found to be 4.04.

For `COc1cccnc1CNC(=O)c1cccc(NCc2nnc(-c3ccncc3)[nH]2)c1` [compound 33], the IC50 on GRK2 [4] (setting [6]) turned out to be 7.8 nM. Moreover, the GI50 turned out to be 1.33 µM in test [1] and 17.7 µM in test [2]. Besides, the “Ratio GRK2 overexpressing cells/Empty vector cells” value in test [2] was 13.27.

As to `CCCn1c(CNc2cc(C(=O)NCc3ccccc3C(F)(F)F)ccn2)nnc1-c1ccncn1` [compound 35, 2-(((4-propyl-5-(pyrimidin-4-yl)-4H-1,2,4-triazol-3-yl)methyl)amino)-N-(2-(trifluoromethyl)benzyl)isonicotinamide], at GRK2 [3] (setting [5]), the IC50 is 4.5 nM. Moreover, in test [1], the GI50 was found to be 1.3 µM. Besides, in test [2], the GI50 worked out at 3.22 µM and the “Ratio GRK2 overexpressing cells/Empty vector cells” value came out at 2.49.

In the case of `Cc1ccn2c(CNC(=O)c3cccc(NCc4nnc(-c5ccncn5)n4C)c3)cnc2c1` [drawing 620], the IC50 at GRK2 [3] (Enzyme Assay B, TR-FRET (Example 7), read-out: B: Enzymatic GRK2: IC50 (nM) (Example 7)) stood at 20 nM; on GRK2 [4] (Enzyme Assay A, ADPGlo (Example 8), read-out: A: Enzymatic GRK2: IC50 (nM) (Example 8)), 3 nM; in test [1] it was 5.6 µM.

As to `C[C@@H](NC(=O)c1cccc(NCc2nnc(-c3ccncn3)n2C)c1)c1ncccc1Cl` [drawing 845], the IC50 at GRK2 [3] (setting [7]) is 15 nM; at GRK2 [4] (setting [8]), 12 nM; in test [1], 27.1 µM.

With `Cn1c(CNc2cccc(C(=O)N[C@@H]3COCc4ccccc43)c2)nnc1-c1ccncn1` [drawing 851], the IC50 was 11.9 nM at GRK2 [3] (setting [7]), 20.2 nM on GRK2 [4] (setting [8]) and greater than 0.8 µM in test [1].
